Data: ChEMBL document CHEMBL1129390, “Synthesis and solution conformation of cyclo[RGDRGD]: a cyclic peptide with selectivity for the alpha V beta 3 receptor” (J Med Chem, 1996)
Square brackets hold non-standard residues; d marks the D form. Peptide text beside a SMILES is read from it. NMeR = CN[C@@H](CCCNC(=N)N)C(=O)O; 3Amb = NCc1cccc(C(=O)O)c1; dAbu = CC[C@@H](N)C(=O)O

target: Integrin alpha-V/beta-3 (Homo sapiens, UniProt P05106+P06756); assay: Inhibition of alphaV-beta3 interaction with vitronectin; type: protein-complex assay
Sequence (P05106 27-788 limits assumed): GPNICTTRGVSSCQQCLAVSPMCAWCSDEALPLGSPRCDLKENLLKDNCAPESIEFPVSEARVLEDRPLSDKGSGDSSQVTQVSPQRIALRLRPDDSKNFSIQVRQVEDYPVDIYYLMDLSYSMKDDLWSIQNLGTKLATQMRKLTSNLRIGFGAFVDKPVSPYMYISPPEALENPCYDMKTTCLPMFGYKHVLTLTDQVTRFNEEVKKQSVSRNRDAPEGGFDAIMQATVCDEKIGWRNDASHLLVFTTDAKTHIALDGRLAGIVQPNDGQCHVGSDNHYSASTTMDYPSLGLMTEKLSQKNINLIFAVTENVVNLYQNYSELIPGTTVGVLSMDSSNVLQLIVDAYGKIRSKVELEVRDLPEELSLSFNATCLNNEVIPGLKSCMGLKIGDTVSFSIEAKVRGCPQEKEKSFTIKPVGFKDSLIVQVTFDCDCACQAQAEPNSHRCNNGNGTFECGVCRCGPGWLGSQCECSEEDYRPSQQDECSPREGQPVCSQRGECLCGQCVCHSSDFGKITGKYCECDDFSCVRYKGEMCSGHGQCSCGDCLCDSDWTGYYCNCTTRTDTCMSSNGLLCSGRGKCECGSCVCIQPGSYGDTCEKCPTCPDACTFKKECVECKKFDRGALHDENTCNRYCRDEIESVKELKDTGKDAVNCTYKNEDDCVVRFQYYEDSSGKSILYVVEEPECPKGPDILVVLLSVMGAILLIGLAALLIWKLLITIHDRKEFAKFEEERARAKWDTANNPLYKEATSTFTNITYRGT
Sequence (P06756 31-889 limits assumed): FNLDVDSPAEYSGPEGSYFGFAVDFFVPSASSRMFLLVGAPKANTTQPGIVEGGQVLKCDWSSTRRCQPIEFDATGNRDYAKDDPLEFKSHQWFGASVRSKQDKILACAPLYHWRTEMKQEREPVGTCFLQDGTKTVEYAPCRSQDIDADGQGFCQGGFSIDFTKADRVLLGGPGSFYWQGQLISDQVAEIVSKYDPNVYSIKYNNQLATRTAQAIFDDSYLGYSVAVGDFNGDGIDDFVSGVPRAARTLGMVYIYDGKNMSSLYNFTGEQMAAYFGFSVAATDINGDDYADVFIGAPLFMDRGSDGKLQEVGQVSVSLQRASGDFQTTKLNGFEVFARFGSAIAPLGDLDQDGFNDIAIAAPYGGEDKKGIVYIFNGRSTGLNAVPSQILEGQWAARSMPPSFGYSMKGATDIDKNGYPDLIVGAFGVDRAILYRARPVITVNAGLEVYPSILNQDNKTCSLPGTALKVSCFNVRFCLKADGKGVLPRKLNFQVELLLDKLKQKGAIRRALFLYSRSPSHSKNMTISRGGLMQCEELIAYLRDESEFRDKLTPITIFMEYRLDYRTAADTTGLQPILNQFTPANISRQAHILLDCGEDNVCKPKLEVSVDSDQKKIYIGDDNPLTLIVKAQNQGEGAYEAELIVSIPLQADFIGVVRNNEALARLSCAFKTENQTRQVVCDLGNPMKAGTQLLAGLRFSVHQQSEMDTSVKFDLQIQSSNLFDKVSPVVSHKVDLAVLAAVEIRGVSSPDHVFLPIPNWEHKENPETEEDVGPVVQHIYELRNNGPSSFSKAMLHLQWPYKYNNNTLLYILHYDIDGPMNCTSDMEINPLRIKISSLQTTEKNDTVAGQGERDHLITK
Sequence (P06756 891-1048 limits assumed): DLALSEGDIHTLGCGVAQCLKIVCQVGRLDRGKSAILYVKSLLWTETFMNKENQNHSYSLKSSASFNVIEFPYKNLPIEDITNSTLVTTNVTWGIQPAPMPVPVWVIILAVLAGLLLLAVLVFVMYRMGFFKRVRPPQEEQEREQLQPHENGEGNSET

`N=C(N)NCCC[C@@H]1NC(=O)[C@H](CC(=O)O)NC(=O)CNC(=O)[C@H](CCCNC(=N)N)NC(=O)[C@@H](CC(=O)O)NC(=O)CNC1=O` was tested. Which IC50 did it give?
The IC50 was 320 nM.

With `NC(N)=NCCC[C@H](NC(=O)[C@H](CC(=O)O)NC(=O)CNC(=O)[C@@H](N)CCCN=C(N)N)C(=O)NCC(=O)N[C@@H](CC(=O)O)C(=O)O` (H-RGDRGD-OH) as the compound, how does the IC50 read?
The IC50 was 70 nM.

Which IC50 does the source give for `CC[C@H]1NC(=O)c2cccc(c2)CNC(=O)[C@H](CC(=O)O)NC(=O)CNC(=O)[C@H](CCCN=C(N)N)N(C)C1=O` (cyclo([NMeR]GD[3Amb][dAbu])) here?
The IC50 was > 10000 nM.

Which IC50 does the source give for `N=C(N)NCCC[C@@H]1NC(=O)[C@H](CC(=O)O)NC(=O)CNC(=O)[C@H](CCCNC(=N)N)NC(=O)[C@H](CC(=O)O)NC(=O)CNC1=O` here?
Its IC50 is 140 nM.
